Calls of active or inactive are those of the source. The calls are words filed in the database; no cut-off is given here.
Legend:
[1] = test system: Human immunodeficiency virus 1; experiment: Antiviral activity against HIV1 JR-FL infected in human PBMC transplanted NOD/SCID/Janus kinase 3 knockout mouse assessed as decrease of viremia in plasma at 0.5 mg/kg, ip bid for 15 days by ELISA; type: functional, organism-based; parameters: dose 0.5 mg/kg
[2] = Drug level in BALB/c mouse blood at 20 mg/kg, ip; type: ADME, organism-based; parameters: dose 20 mg/kg, route intraperitoneal; details: read-out: Drug uptake
Mus musculus [3] = experiment: Toxicity in BALB/c mouse assessed as acute whole-body effect at 50 mg/kg, ip bid for 14 days; type: organism-based; parameters: dose 50 mg/kg, route intraperitoneal; details: in vivo, 336 h
Mus musculus [4] = experiment: Toxicity in BALB/c mouse assessed as change in body weight at 5 mg/kg, ip bid for 14 days; type: organism-based; parameters: dose 5 mg/kg, route intraperitoneal; details: in vivo, 336 h
[5] = Tmax in BALB/c mouse at 20 mg/kg, ip; type: ADME, organism-based; parameters: dose 20 mg/kg, route intraperitoneal; details: in vivo
[6] = test system: Human immunodeficiency virus 1; experiment: Antiviral activity against HIV1 JR-FL infected in human PBMC transplanted NOD/SCID/Janus kinase 3 knockout mouse assessed as increase of CD4/CD8 ratio in peritoneal cavity at 0.5 mg/kg, ip bid for 15 days by flow cytometry; type: functional, organism-based; parameters: dose 0.5 mg/kg
[7] = test system: Human immunodeficiency virus 1; experiment: Antiviral activity against HIV1 JR-FL infected in human PBMC transplanted NOD/SCID/Janus kinase 3 knockout mouse assessed as decrease of p24 expressing human CD3+ cells in spleen cells at 0.5 mg/kg, ip bid for 15 days by flow cytometry; type: functional; parameters: scale not given: the % may be the effect or the level left; details: route intraperitoneal
[8] = test system: Human immunodeficiency virus 1; experiment: Antiviral activity against HIV1 JR-FL infected in human PBMC transplanted NOD/SCID/Janus kinase 3 knockout mouse assessed as decrease of p24 expressing human CD4+ cells in PBMC at 0.5 mg/kg, ip bid for 15 days by flow cytometry; type: functional, organism-based; parameters: dose 0.5 mg/kg
[9] = test system: Human immunodeficiency virus 1; experiment: Antiviral activity against HIV1 JR-FL infected in human PBMC transplanted NOD/SCID/Janus kinase 3 knockout mouse assessed as decrease of viral p24 antigen level in plasma at 0.5 mg/kg, ip bid for 15 days by ELISA; type: functional; details: route intraperitoneal
[10] = test system: Human immunodeficiency virus 1; experiment: Antiviral activity against HIV1 JR-FL infected in human PBMC transplanted NOD/SCID/Janus kinase 3 knockout mouse assessed as decrease of p24 expressing human CD4+ cells in peritoneal cavity cells at 0.5 mg/kg, ip bid for 15 days by flow cytometry; type: functional, organism-based; parameters: dose 0.5 mg/kg
[11] = test system: Human immunodeficiency virus 1; experiment: Antiviral activity against HIV1 JR-FL infected in human PBMC transplanted NOD/SCID/Janus kinase 3 knockout mouse assessed as increase of CD4/CD8 ratio in spleen at 0.5 mg/kg, ip bid for 15 days by flow cytometry; type: functional, organism-based; parameters: dose 0.5 mg/kg
Mus musculus [12] = experiment: Toxicity in BALB/c mouse assessed as subacute whole-body effect at 5 mg/kg, ip bid for 14 days; type: organism-based; parameters: dose 5 mg/kg, route intraperitoneal; details: in vivo, 336 h
Mus musculus [13] = experiment: Toxicity in BALB/c mouse assessed as change in body weight at 50 mg/kg, ip bid for 14 days; type: organism-based; parameters: dose 50 mg/kg, route intraperitoneal; details: in vivo, 336 h
Mus musculus [14] = experiment: Toxicity in BALB/c mouse assessed as acute whole-body effect at 5 mg/kg, ip bid for 14 days; type: organism-based; parameters: dose 5 mg/kg, route intraperitoneal; details: in vivo, 336 h
Mus musculus [15] = experiment: Toxicity in HIV1 JR-FL infected human PBMC transplanted NOD/SCID/Janus kinase 3 knockout mouse assessed as adverse effect at 0.5 mg/kg, ip bid for 15 days; type: organism-based; parameters: dose 0.5 mg/kg, route intraperitoneal; details: in vivo, 360 h
[16] = test system: Human immunodeficiency virus 1; experiment: Antiviral activity against HIV1 JR-FL infected in human PBMC transplanted NOD/SCID/Janus kinase 3 knockout mouse assessed as increase of CD4/CD8 ratio in PBMC at 0.5 mg/kg, ip bid for 15 days by flow cytometry; type: functional; details: route intraperitoneal
Mus musculus [17] = experiment: Toxicity in BALB/c mouse assessed as ruffled fur at 50 mg/kg, ip bid for 14 days; type: organism-based; parameters: dose 50 mg/kg, route intraperitoneal; details: in vivo, 336 h
Mus musculus [18] = experiment: Toxicity in BALB/c mouse assessed as subacute whole-body effect at 50 mg/kg, ip bid for 14 days; type: organism-based; parameters: dose 50 mg/kg, route intraperitoneal; details: in vivo, 336 h

C#C[C@]1(CO)O[C@@H](n2cnc3c(N)nc(F)nc32)C[C@@H]1O [ISLATRAVIR]
Activity [1]: Active | AUC [2]: 4990 ng·h/mL | Activity (Mus musculus [3]): Non-toxic | Activity (Mus musculus [4]): Non-toxic | Tmax [5]: 10 min | Activity [6]: Active | Activity [7]: 0.11% | Activity [8]: Active | Activity [9]: 2.1 ×10² pg/ml | Activity [10]: Active | Activity [11]: Active | Activity (Mus musculus [12]): Non-toxic | Activity (Mus musculus [13]): Non-toxic | Activity (Mus musculus [14]): Non-toxic | Activity (Mus musculus [15]): Non-toxic | Ratio [16]: 0.65 | Activity (Mus musculus [17]): Non-toxic | Activity (Mus musculus [18]): Non-toxic

From ChEMBL document CHEMBL1687737, “Potent activity of a nucleoside reverse transcriptase inhibitor, 4'-ethynyl-2-fluoro-2'-deoxyadenosine, against human immunodeficiency virus type 1 infection in a model using human peripheral blood mononuclear cell-transplanted NOD/SCID Janus kinase 3 knockout mice” (Antimicrob Agents Chemother, 2009)
